Measurements from patent publication US12390469B2, “SHP2 inhibitor monotherapy and uses thereof” (HUYABIO International, LLC, priority 2021, dated 2025).
Entries after “also recorded” stand apart in the source; their conditions may differ.

Key:
KYSE 520 = assay: Cell viability assay (CellTiter-Glo), KYSE 520; type: cell-based, human; conditions: Day 5, CellTiter-Glo
Description: (§1) Cell lines and maintenance: All cell lines used for in vitro and in vivo studies were supplied as part of Crown Biosciences cell bank except KYSE520, which was provided by HUYABIO. All cell lines were maintained according to source at 37° C. and 5% CO2 unless otherwise noted. Human Lung cancer cell lines NCI-H358, HCC827, Esophageal cancer cell line KYSE520, Stomach cancer cell line NCI-N87 and Mouse Colon cancer cell line MC38 were cultured in RPMI1640+10% FBS. Pancreatic cell line MiaPaca-2 was cultured in MDME+10% FBS+2.5% HS. Pancreatic cancer cell line CAPAN-1 was cultured in IMDM+20% FBS. Brain cancer cell line U87MG was cultured in MEM+0.01 mM NEAA+10% FBS. Lung cancer cell line HCC827-ER1 (Derived from HCC827 at Crown Biosciences) was cultured in RPMI1640+10% FBS+42 μM erlotinib. Lung cancer cell line NCI-H1975 (developed at Synthego Corporation) was cultured in RPMI1640+10% FBS+100 μg/ml Hygromycin (Sun, 2020).
(§2) Cell Viability Assay: For cell cytotoxicity assays, cells were plated in 96-well plates and plating densities were determined on the basis of Crown Biosciences Cell line Database. Cells were plated at 2000 cells/well. Twenty four hours after plating, cells were treated with inhibitors at the indicated compound concentrations. On Day 5, cells were lysed with CellTiter-Glo® Luminescent Cell Viability Assay reagent (Promega) and luminescence was read using the EnVision Multi-plate reader. To calculate IC50 values, a dose-response curve is generated using a nonlinear regression model with a sigmoidal dose response. The formula of surviving rate is shown below. IC50 values were automatically generated by GraphPad Prism 8.0. The results of these assays are depicted in FIG. 1 and Table 1, and further in FIG. 9A (HCC827-ER1) and 9B (NCI-H1975 (L858R/T790M/C797S)).

NCI-H1975 = assay: Cell viability assay (CellTiter-Glo), NCI-H1975; type: cell-based; conditions: Day 5, CellTiter-Glo
Description: as §1, §2

U87MG = assay: Cell viability assay (CellTiter-Glo), U87MG; type: cell-based; conditions: Day 5, CellTiter-Glo
Description: as §1, §2

NCI-N87 = assay: Cell viability assay (CellTiter-Glo), NCI-N87; type: cell-based, human; conditions: Day 5, CellTiter-Glo
Description: as §1, §2

NCI-H358 = assay: Cell viability assay (CellTiter-Glo), NCI-H358; type: cell-based, human; conditions: Day 5, CellTiter-Glo
Description: as §1, §2

HCC827 = assay: Cell viability assay (CellTiter-Glo), HCC827; type: cell-based, human; conditions: Day 5, CellTiter-Glo
Description: as §1, §2

MIAPaCa-2 = assay: Cell viability assay (CellTiter-Glo), MIAPaCa-2; type: cell-based; conditions: Day 5, CellTiter-Glo
Description: as §1
(§3) Cell Viability Assay: For cell cytotoxicity assays, cells were plated in 96-well plates and plating densities were determined on the basis of Crown Biosciences Cell line Database. Cells were plated at 2000 cells/well. […] On Day 5, cells were lysed with CellTiter-Glo® Luminescent Cell Viability Assay reagent (Promega) and luminescence was read using the EnVision Multi-plate reader. […]

Capan-1 = assay: Cell viability assay (CellTiter-Glo), Capan-1; type: cell-based; conditions: Day 5, CellTiter-Glo
Description: as §1, §3

[1] = test system: NCI-H1975 (L858R/T790M/C797S); assay: Cell viability assay, Osimertinib resistant NCI-H1975 (FIG. 9B); type: cell-based
Description: as §1, §3

MC38 tumors = assay: Tumor and blood immunotyping (FACS) in MC38 model; type: in vivo, mouse
Description: All cell lines were maintained in culture and cells in exponential growth phase were harvested and quantitated by cell counter before tumor inoculation. MC38 tumor cells (1×10^6) in 0.1 ml of PBS were inoculated into the right front flank of female C57/Bl animals, mean tumor size approximately 112 mm^3 at the start of treatment. NCI-H1975 (EGFR L858R/[…]/C797S) tumor cells (1×10^7) in 0.1 ml of PBS mixed with Matrigel (1:1) inoculated into female NOD/SCID animals, mean tumor approximately 200 mm^3 at the start of treatment. HCC827-ER1 tumor cells (5×10^7) in 0.1 ml of PBS mixed with Matrigel (1:1) inoculated into female Balb/C Nude animals, mean tumor approximately 325 mm^3 at the start of treatment.
The date of randomization and treatment initiation was denoted as day 0. Tumor volumes were measured twice per week in two dimensions using a caliper, and the volume will be expressed in mm^3 using the formula: V=(L×W×W)/2, where V is tumor volume, L is tumor length (the longest tumor dimension) and W is tumor width (the longest tumor dimension perpendicular to L). Dosing volume was 10 mL/kg/day. GH21001 and GH21005 were dissolved in HP-β-CD with 200 ml of 50 mM sodium citrate (pH=4.2). Anti-PD-1 and Rat IgG2a were diluted in PBS. RMC-4550 was diluted in 1% Capitsol in 50 mM sodium citrate (pH=5.0) 0.5% dosing solution of osimertinib was diluted in 2% DMSO/30% PEG300. The results of these experiments are depicted in FIG. 2A-B (MC38 tumors) and FIG. 10A-10B (NCI-H1975 (L858R/T790M/C797S) tumors). The results for HCC827 CDX model are depicted in FIG. 12A-B. Upon termination, tumors were collected. A portion of the tumor was minced and snap frozen immediately for protein isolation or tumor tissue was dissociated for FACs analysis. Another portion of the tumor was fixed in 10% neutral buffered formalin prior to processing into paraffin blocks.
Tumor dissociation: Upon termination animals bearing MC38 tumors, tumors and blood was harvested 12 hours post last dose. Tumors were enzymatically and mechanically dissociated using The Tumor Dissociation Kit (130-096-730) Miltenyi Biotec MACS Technology. Mononuclear blood cells (PBMCs) were isolated from whole blood using Histopaque-1077 (Sigma).
Tumor cell suspension, whole lysed blood or isolated PBMCs were resuspended and blocked in staining buffer with 1 μg/ml Fc-Block (Mouse BD Fc Block™ CAT #553141). All antibodies were diluted in Fc Blocking buffer except FoxP3 which was diluted in Permeabilization Buffer. Antibodies were diluted according to Crown Biosciences optimization. Cell surface markers CD45, CD4, CD335, CD11b, Gr-1 were purchased from Biolegend. CD3 was purchased from BD Biosciences. CD8, FoxP3 and LD BD were purchased from eBiosciences. Data was collected on a cytometer and data was analyzed using Kaluza Analysis Software. The results of these experiments are depicted in FIG. 3 (macrophages), FIG. 4 (monocytes), FIG. 5 (granulocytes), FIG. 6 (CD3+ cells), FIG. 7 (CD4+ cells), and FIG. 8 (CD8+ cells).

KC/GRO = assay: Cytokine detection assay (V-Plex Proinflammatory Panel 1 Mouse Kit) in plasma; type: in vivo; conditions: FIG. 11; tumor bearing animals, 2 hours post last dose; versus GH21001 (TNO-155) and RMC-4550; listed as Formula (Ia)
Description: Cytokine detection assay: V-Plex Proinflammatory Panel 1 Mouse Kit (Mesoscale Discovery) was used to determine cytokine levels in plasma isolated from tumor bearing animals 2 hours post last dose. Plasma from tumor bearing animals was analyzed as described by the manufacture's guidelines. Briefly, diluted plasma is introduced to the MSD plate pre-coated with capture antibodies to KC/GRO. After incubation, samples are washed and incubated with secondary detection antibody, (MSD SULFO-TAG™). Electrochemiluminescence detection from the assay is analyzed on the Meso Scale Discovery platform and cytokine levels calculated according to manufacturer's control samples.

cancer cell lines = assay: Cell proliferation assays, cell line panel (FIG. 1); type: cell-based; conditions: compared with GH21001 (TNO-155), RMC-4550, Cisplatin
Description: as §1, §3

[2] = test system: lung cancer cell line HCC827-ER1; assay: Cell viability assay, HCC827-ER1 (FIG. 9A); type: cell-based, human
Description: as §1, §3

Structure (SMILES) | IC50 (KYSE 520) | IC50 (NCI-H1975) | IC50 (U87MG) | IC50 (NCI-N87) | IC50 (NCI-H358) | IC50 (HCC827) | IC50 (KYSE 520; Homo sapiens, 120 h) | IC50 (U87MG; Homo sapiens, U-87 MG, 120 h) | IC50 (NCI-N87; Homo sapiens, 120 h) | IC50 (NCI-H358; Homo sapiens, 120 h) | IC50 (HCC827; Homo sapiens, 120 h) | other results
N.N.[Cl][Pt][Cl] [Cisplatin] | 6800 nM | 3990 nM | 1580 nM | 2350 nM | 4850 nM | 4790 nM |  |  |  |  |  | IC50 (MIAPaCa-2): 7150 nM; IC50 (Capan-1): 270 nM
Cc1nc(N2CCC3(CC2)CO[C@@H](C)[C@H]3N)c(CO)nc1-c1cccc(Cl)c1Cl [RMC-4550] | 490 nM | 1440 nM | 3900 nM | 260 nM | 440 nM | 690 nM |  |  |  |  |  | 
C[C@@H]1OCC2(CCN(c3cnc(Sc4cccc(NC(=O)c5c(O)nc6n(c5=O)CCCC6)c4Cl)cn3)CC2)[C@@H]1N [GH21005, N-(3-((5-((3S,4S)-4-amino-3-methyl-2-oxa-8-azaspiro[4.5]decan-8-yl)pyrazin-2-yl)thio)-2-chlorophenyl)-2-hydroxy-4-oxo-6,7,8,9-tetrahydro-4H-pyrido[1,2-a]pyrimidine-3-carboxamide] |  |  |  |  |  |  | 60 nM | 230 nM | 10 nM | 30 nM | 20 nM | viability of Osimertinib resistant cancer cell line NCI-H1975 (L858R/T790M/C797S) [1]: reduces viability; IC50 (NCI-H1975; Homo sapiens, 120 h): 210 nM; macrophage populations in MC38 tumors (MC38 tumors; FIG. 3, harvested 12 hours post last dose): reduces macrophage populations; monocyte populations in MC38 tumors (MC38 tumors; FIG. 4, harvested 12 hours post last dose): increases monocyte populations; granulocyte populations in MC38 tumors (MC38 tumors; FIG. 5, harvested 12 hours post last dose): increases granulocyte populations; circulating CD3+ cell populations (MC38 tumors; FIG. 6, MC38 model, blood 12 hours post last dose): increases circulating CD3+ cell populations; circulating CD4+ cell populations (MC38 tumors; FIG. 7, MC38 model, blood 12 hours post last dose): increases circulating CD4+ cell populations; circulating CD8+ cell populations (MC38 tumors; FIG. 8, MC38 model, blood 12 hours post last dose): increases circulating CD8+ cell populations; KC/GRO level in plasma (KC/GRO): significantly reduced KC/GRO as compared to GH21001 (TNO-155) and RMC-4550; also recorded: reduces KC/GRO significantly more than GH21001 (TNO-155) and RMC-4550; potency in cell proliferation assays versus other agents (cancer cell lines): greater potency in cell proliferation assays than other agents; viability of lung cancer cell line HCC827-ER1 [2]: reduces viability
C[C@@H]1OCC2(CCN(c3cnc(Sc4ccnc(N)c4Cl)c(N)n3)CC2)[C@@H]1N [GH21001] |  |  |  |  |  |  | 450 nM | 1530 nM | 230 nM | 460 nM | 410 nM | IC50 (Capan-1; Homo sapiens, 120 h): 6060 nM
